Results on 16 molecules are retold here after US7910609B2, “Inhibitors of integrin alpha2beta1 with modified urea moiety” (The Trustees Of The University Of Pennsylvania, priority 2005, dated 2011).

pIC50: −log10 of the molar value. Some results are limits rather than exact numbers.

For one experiment, the target named is T1, integrin α2β1 (Homo sapiens, UniProt P05556+P17301).
T1 construct: Human blood was obtained by venipuncture from healthy volunteers; endogenous in cells; host or cells: washed human platelets from blood of healthy volunteers
T1 sequence (P17301 30-1181): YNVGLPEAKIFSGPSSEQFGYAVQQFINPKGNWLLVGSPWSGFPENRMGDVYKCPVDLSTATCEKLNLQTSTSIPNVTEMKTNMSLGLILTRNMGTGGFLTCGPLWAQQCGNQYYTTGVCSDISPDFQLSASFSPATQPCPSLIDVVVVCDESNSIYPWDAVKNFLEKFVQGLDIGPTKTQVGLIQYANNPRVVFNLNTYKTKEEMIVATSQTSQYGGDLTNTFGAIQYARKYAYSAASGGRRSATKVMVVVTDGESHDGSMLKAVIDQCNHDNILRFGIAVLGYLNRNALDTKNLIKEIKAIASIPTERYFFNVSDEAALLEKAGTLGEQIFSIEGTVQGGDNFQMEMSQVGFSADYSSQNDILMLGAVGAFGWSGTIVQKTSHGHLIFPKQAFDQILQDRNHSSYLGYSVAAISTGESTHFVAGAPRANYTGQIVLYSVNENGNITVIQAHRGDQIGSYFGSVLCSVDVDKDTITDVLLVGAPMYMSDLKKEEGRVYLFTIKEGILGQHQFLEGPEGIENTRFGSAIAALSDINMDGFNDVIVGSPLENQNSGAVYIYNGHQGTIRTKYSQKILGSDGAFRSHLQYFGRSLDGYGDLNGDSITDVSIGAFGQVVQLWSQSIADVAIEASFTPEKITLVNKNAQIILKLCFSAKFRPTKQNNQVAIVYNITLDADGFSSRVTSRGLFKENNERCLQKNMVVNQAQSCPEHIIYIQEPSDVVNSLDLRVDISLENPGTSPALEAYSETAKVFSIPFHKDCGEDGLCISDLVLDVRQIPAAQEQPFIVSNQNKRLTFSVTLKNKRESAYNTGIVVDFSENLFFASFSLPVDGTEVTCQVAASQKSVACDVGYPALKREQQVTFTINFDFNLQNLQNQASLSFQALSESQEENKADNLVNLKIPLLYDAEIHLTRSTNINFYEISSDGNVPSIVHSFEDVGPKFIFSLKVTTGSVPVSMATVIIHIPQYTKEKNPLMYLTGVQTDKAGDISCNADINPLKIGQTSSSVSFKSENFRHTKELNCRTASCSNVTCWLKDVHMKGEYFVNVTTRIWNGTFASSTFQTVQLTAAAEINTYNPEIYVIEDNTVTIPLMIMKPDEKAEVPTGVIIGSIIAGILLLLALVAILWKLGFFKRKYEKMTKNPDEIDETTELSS
T1 sequence (P05556 21-798): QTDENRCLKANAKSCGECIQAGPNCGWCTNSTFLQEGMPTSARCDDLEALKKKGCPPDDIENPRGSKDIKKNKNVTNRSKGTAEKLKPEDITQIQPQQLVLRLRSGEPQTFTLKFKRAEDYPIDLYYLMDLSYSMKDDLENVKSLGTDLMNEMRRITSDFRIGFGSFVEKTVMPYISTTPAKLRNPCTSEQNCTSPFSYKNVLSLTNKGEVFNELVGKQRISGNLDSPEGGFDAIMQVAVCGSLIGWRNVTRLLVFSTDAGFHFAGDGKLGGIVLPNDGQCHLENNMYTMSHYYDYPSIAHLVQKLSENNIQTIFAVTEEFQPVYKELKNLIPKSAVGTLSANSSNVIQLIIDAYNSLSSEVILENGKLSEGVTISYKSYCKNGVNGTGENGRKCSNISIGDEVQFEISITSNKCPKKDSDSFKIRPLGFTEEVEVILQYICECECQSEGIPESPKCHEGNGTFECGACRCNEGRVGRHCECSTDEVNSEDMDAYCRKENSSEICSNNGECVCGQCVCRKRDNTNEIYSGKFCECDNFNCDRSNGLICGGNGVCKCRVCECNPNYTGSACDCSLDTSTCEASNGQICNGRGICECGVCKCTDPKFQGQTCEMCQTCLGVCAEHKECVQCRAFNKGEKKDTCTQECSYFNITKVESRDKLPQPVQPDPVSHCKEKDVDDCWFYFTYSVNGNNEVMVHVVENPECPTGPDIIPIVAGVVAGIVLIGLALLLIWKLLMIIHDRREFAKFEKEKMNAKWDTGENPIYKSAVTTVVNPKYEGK
As to the kind of experiment: Platelet adhesion assay: washed human platelet binding to soluble type I collagen. Format: cell-based. How it is done: The series of compounds was tested for the ability to block washed human platelet binding to soluble type I collagen. […] Further understanding was sought with respect to the SAR of the urea functionality and its spatial positioning.
(§1) Preparation of Washed Platelets. All Studies were Conducted Following IRB-approved protocols at the University of Pennsylvania. Human blood was obtained by venipuncture from healthy volunteers using 0.3% sodium citrate as anticoagulant, then acid-citrate-dextrose was added (1 mL per 10 mL blood). Platelet-rich plasma (PRP) was then prepared by centrifugation at 200 g for 20 min. Platelets were obtained from the PRP by addition of prostacyclin (PG I2: 0.1 μg/ml) followed by centrifugation at 1000 g for 10 min. The pelleted platelets were resuspended in HEPES/Tyrode's buffer (20 mM HEPES, 129 mM NaCl, 0.34 mM Na2HPO4, 2.9 mM KCl, 12 mM NaHCO3, 5 mM glucose, 1 mm MgCl2, pH 7.3) and repelleted by repeated PG I2 addition and centrifugation.
(§2) Platelet Adhesion Assays. Immulon 2 flat bottom 96-well Plates (Dynatech Labs, Burlington, Mass.) were coated with soluble type I collagen, fibronectin (FN) or osteopontin (OPN) (5 μg/ml) in PBS for 48 hrs at 4° C. The plates were then washed and blocked with BSA (5 mg/ml in PBS) for at least 24 hr. Adhesion assays using type I collagen contained test compound and 1.6×10^7 Platelets in GFP buffer in a final volume of 100 μl. The plates were then incubated for 30 min at 37° C. and washed with TBS (10 mM Tris, 150 mM NaCl, pH 7.4). Quantification of adherent platelets was performed as previously described.^[27] Briefly, the platelets were stained for acid phosphatase by adding 0.1 M sodium citrate (pH 5.4) with 0.1% Triton X-100 containing 5 mM p-nitrophenyl phosphate substrate (100 μl/well) and incubated for 40 min at 37° C. Color was then developed by the addition of 50 μl 2.0 M NaOH per well and the plates were read at 405 nm in a Molecular Devices Spectra Max M5 microplate reader. Adhesion to FN- and OPN-coated plates were performed similarly using a modified GFP buffer for resuspension (4 mM HEPES, 147 mM NaCl, 2.7 mM KCl, 0.35% BSA, 0.1% glucose, 1 mM MgCl2, 1 mM MnCl2, pH 7.4). Platelets were stimulated in OPN binding by addition of 20 μM ADP during incubation.^[28] The platelets in αvβ3-mediated binding to FN were pre-treated with 2 μg per mL ReoPro (abciximab, chimeric 7E3 Fab; Centocor, Malvern Pa.) for 20 minutes at RT.

In another experiment the target is T2, integrin α5β1 (Homo sapiens, UniProt P05556+P08648).
T2 construct: Platelets express several integrins, including αIIbβ3, αvβ3, α2β1, α5β1, and α6β1; endogenous in cells; host or cells: washed human platelets from blood of healthy volunteers
T2 sequence (P08648 42-894 limits assumed): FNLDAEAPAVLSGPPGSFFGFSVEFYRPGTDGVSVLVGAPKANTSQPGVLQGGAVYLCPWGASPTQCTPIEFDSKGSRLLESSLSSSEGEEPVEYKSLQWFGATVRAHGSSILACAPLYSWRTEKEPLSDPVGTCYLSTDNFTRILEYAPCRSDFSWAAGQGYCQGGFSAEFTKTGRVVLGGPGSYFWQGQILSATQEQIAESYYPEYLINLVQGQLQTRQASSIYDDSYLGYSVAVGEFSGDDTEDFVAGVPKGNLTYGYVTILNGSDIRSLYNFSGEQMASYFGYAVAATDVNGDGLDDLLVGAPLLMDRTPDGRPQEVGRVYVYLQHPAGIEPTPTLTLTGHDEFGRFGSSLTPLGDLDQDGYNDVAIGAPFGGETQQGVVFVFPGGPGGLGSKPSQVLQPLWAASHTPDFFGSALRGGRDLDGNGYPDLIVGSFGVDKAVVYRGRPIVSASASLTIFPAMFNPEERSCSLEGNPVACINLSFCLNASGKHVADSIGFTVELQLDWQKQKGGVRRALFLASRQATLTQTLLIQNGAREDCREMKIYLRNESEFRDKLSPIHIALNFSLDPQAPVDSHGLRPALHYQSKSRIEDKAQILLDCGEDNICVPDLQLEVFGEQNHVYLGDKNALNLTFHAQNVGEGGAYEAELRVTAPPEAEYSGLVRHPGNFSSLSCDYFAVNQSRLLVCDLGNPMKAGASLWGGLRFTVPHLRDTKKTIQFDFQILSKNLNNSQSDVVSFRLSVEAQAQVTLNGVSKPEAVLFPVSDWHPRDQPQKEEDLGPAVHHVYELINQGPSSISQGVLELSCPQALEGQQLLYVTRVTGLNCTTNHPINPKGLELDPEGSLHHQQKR
T2 sequence (P08648 895-1049 limits assumed): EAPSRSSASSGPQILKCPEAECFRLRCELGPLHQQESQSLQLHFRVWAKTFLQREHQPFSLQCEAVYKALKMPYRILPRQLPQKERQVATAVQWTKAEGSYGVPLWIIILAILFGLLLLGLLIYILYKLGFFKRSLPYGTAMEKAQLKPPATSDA
T2 sequence (P05556 21-798): as the sequence (P05556 21-798) above
As to the kind of experiment: Platelet adhesion to fibronectin (in the presence of abciximab). Format: cell-based. As to conditions: Table 2 selectivity, ligand Fibronectin. On the procedure: as §1
as §2, with “The platelets in αvβ3-mediated binding to FN were pre-treated with 2 μg per mL ReoPro (abciximab, chimeric 7E3 Fab; Centocor, Malvern Pa.) for 20 minutes at RT.” left out

[1] abbreviates: Table 1, washed human platelets, soluble type I collagen, 30 min at 37° C.
Setting [2] is: Compounds Produced in Accordance with Scheme 2.

On integrin α2β1 (setting [1]), `CC(C)(C)CNC(=O)NC[C@H](NC(=O)C1N(S(=O)(=O)c2ccccc2)CSC1(C)C)C(=O)O` (some centres unmarked) [Compound 19] had a negative-log IC50 (pIC50) of 7.82.

`Cc1ccccc1CNC(=O)NC[C@H](NC(=O)C1N(S(=O)(=O)c2ccccc2)CSC1(C)C)C(=O)O` (some centres unmarked) [Compound 9]: the pIC50 at integrin α2β1 (setting [1]) was 8.40; on integrin α5β1 it was below 6.00.

Turning to `CC1(C)SCN(S(=O)(=O)c2ccccc2)C1C(=O)N[C@@H](CNC(=O)NCCc1ccccc1)C(=O)O` (some centres unmarked) [Compound 22], at integrin α2β1 (setting [1]), the pIC50 was 6.88.

With `CC1(C)SCN(S(=O)(=O)c2ccccc2)C1C(=O)N[C@@H](CNC(=O)NCc1ccc(Cl)cc1)C(=O)O` (some centres unmarked) [Compound 15], the pIC50 at integrin α2β1 (setting [1]) was 8.22; on integrin α5β1, below 6.00.

Regarding `CC1(C)SCN(S(=O)(=O)c2ccccc2)C1C(=O)N[C@@H](CNC(=O)NCC(c1ccccc1)c1ccccc1)C(=O)O` (some centres unmarked) [Compound 20], the pIC50 at integrin α2β1 (setting [1]) is below 5.70.

On integrin α2β1 (setting [1]), `CC1(C)SCN(S(=O)(=O)c2ccccc2)C1C(=O)N[C@@H](CNC(=O)NCc1ccc(Br)cc1)C(=O)O` (some centres unmarked) [Compound 16] gave a pIC50 of 8.40.

With `CC1(C)SCN(S(=O)(=O)c2ccccc2)C1C(=O)N[C@@H](CNC(=O)NCC1CCCCC1)C(=O)O` (some centres unmarked) [Compound 23], at integrin α2β1 (setting [1]), the pIC50 was 7.55.

`C[C@H](NC(=O)NC[C@H](NC(=O)C1N(S(=O)(=O)c2ccccc2)CSC1(C)C)C(=O)O)c1ccccc1` (some centres unmarked) [Compound 8]: the negative logarithm of the IC50 (pIC50) at integrin α2β1 (setting [1]) was below 6.30.

In the case of `Cc1cccc(CNC(=O)NC[C@H](NC(=O)C2N(S(=O)(=O)c3ccccc3)CSC2(C)C)C(=O)O)c1` (some centres unmarked) [Compound 10], the pIC50 on integrin α2β1 (setting [1]) was 8.10; at integrin α5β1 it was below 6.00.

On integrin α2β1 (setting [1]), `CC1(C)SCN(S(=O)(=O)c2ccccc2)C1C(=O)N[C@@H](CNC(=O)NC(c1ccccc1)c1ccccc1)C(=O)O` (some centres unmarked) [Compound 21] gave a pIC50 of 6.49.

Consider `C[C@@H](NC(=O)NC[C@H](NC(=O)C1N(S(=O)(=O)c2ccccc2)CSC1(C)C)C(=O)O)c1ccccc1` (some centres unmarked) [Compound 7], for which the “greater potency of (R) conformation (7) than (S) conformation (8)” value at integrin α2β1 (7 versus 8, platelet adhesion to type I collagen) is reported as above 25 fold. This molecule also had a pIC50 at integrin α2β1 (setting [1]) of 7.66.

With `CC1OCN(S(=O)(=O)c2ccccc2)C1C(=O)NC(CNC(=O)NCc1ccccc1)C(=O)O` (centres unmarked) [Compound 27, 2-[(3-Benzenesulfonyl-5-methyl-oxazolidine-4-carbonyl)-amino]-3-(3-benzyl-ureido)-propionic acid], the pIC50 on integrin α2β1 (setting [2]) was 7.92.

`O=C(NCc1ccccc1)NCC(NC(=O)C1CCN1S(=O)(=O)c1ccccc1)C(=O)O` (centres unmarked) [Compound 24, 2-[(1-Benzenesulfonyl-azetidine-2-carbonyl)-amino]-3-(3-benzyl-ureido)-propionic acid] gave a pIC50 on integrin α2β1 (setting [2]) of 6.67.

On integrin α2β1 (setting [1]), `CC1(C)SCN(S(=O)(=O)c2ccccc2)C1C(=O)N[C@@H](CNC(=S)NCc1ccccc1)C(=O)O` (some centres unmarked) [Compound 6] had a pIC50 of 8.15.

`CC1(C)SCN(S(=O)(=O)c2ccccc2)C1C(=O)N[C@@H](CNC(=O)NCc1ccc(C(F)(F)F)cc1)C(=O)O` (some centres unmarked) [Compound 17] gave a pIC50 at integrin α2β1 (setting [1]) of 7.39.

As to `Cc1ccc(CNC(=O)NC[C@H](NC(=O)C2N(S(=O)(=O)c3ccccc3)CSC2(C)C)C(=O)O)cc1` (some centres unmarked) [Compound 11], the pIC50 on integrin α2β1 (setting [1]) was 8.22.

The term pIC50 denotes the negative decadic logarithm of the IC50, by convention in mol/L.
